Reference: PMC9516332 (Frontiers in Oncology, 2022)
Like-named read-outs stand apart in the source and are kept apart here.

Tests used:
AP-1060 (ETV6-NTRK3) = assay: Cell viability assay; settings: read-out: IC50 in cell proliferation assay
134 cancer cell lines = assay: Cell viability assay (ATPlite, 72 hours), IC50 on cancer cell line panel

CC(=O)Nc1cccc(-n2c(=O)n(C3CC3)c(=O)c3c(Nc4ccc(I)cc4F)n(C)c(=O)c(C)c32)c1 [trametinib]
IC50 (AP-1060 (ETV6-NTRK3)): 291 nM | IC50 (134 cancer cell lines; HEC-6, read-out: IC50 in cell proliferation assay, HEC-6 cell line (EGFR p.A289V)): > 31600 nM | IC50 (134 cancer cell lines; Homo sapiens, 769-P, read-out: IC50 in cell proliferation assay, cell line 769-P): 95 nM | IC50 (134 cancer cell lines; Homo sapiens, 786-0, read-out: IC50 in cell proliferation assay, cell line 786-O): 42 nM | IC50 (134 cancer cell lines; Homo sapiens, A 172, read-out: IC50 in cell proliferation assay, cell line A-172): 235 nM | IC50 (134 cancer cell lines; Homo sapiens, A204, read-out: IC50 in cell proliferation assay, cell line A-204): 1230 nM | IC50 (134 cancer cell lines; Homo sapiens, A498, read-out: IC50 in cell proliferation assay, cell line A-498): 13800 nM | IC50 (134 cancer cell lines; Homo sapiens, A549, read-out: IC50 in cell proliferation assay, cell line A-549): 8 nM | IC50 (134 cancer cell lines; Homo sapiens, A704, read-out: IC50 in cell proliferation assay, cell line A-704): > 28200 nM | IC50 (134 cancer cell lines; Homo sapiens, A-375, read-out: IC50 in cell proliferation assay, cell line A-375 (BRAF p.V600E)): 5 nM | IC50 (134 cancer cell lines; Homo sapiens, A-427, read-out: IC50 in cell proliferation assay, cell line A-427): 2.13 nM | IC50 (134 cancer cell lines; Homo sapiens, ACHN, read-out: IC50 in cell proliferation assay, cell line ACHN): 6 nM | IC50 (134 cancer cell lines; Homo sapiens, AN3-CA, read-out: IC50 in cell proliferation assay, cell line AN3-CA (FGFR2 p.N549K)): 50 nM | IC50 (134 cancer cell lines; Homo sapiens, ASPC1, read-out: IC50 in cell proliferation assay, cell line AsPC-1): 14 nM | IC50 (134 cancer cell lines; Homo sapiens, AU565, read-out: IC50 in cell proliferation assay, cell line AU565 (ERBB2 amplification)): > 28200 nM | IC50 (134 cancer cell lines; Homo sapiens, BT-20, read-out: IC50 in cell proliferation assay, cell line BT-20): > 28200 nM | IC50 (134 cancer cell lines; Homo sapiens, BT-474, read-out: IC50 in cell proliferation assay, cell line BT-474 (ERBB2 amplification)): > 31600 nM | IC50 (134 cancer cell lines; Homo sapiens, BT-549, read-out: IC50 in cell proliferation assay, cell line BT-549): 314 nM | IC50 (134 cancer cell lines; Homo sapiens, BXPC-3, read-out: IC50 in cell proliferation assay, cell line BxPC-3): 38 nM | IC50 (134 cancer cell lines; Homo sapiens, C-33-A, read-out: IC50 in cell proliferation assay, cell line C-33 A): 4.42 nM | IC50 (134 cancer cell lines; Homo sapiens, CAL-27, read-out: IC50 in cell proliferation assay, cell line CAL-27): 11 nM | IC50 (134 cancer cell lines; Homo sapiens, CCF-STTG1, read-out: IC50 in cell proliferation assay, cell line CCF-STTG1): > 28200 nM | IC50 (134 cancer cell lines; Homo sapiens, CCRF-CEM, read-out: IC50 in cell proliferation assay, cell line CCRF-CEM): > 28200 nM | IC50 (134 cancer cell lines; Homo sapiens, COLO 205, read-out: IC50 in cell proliferation assay, cell line COLO 205 (BRAF p.V600E)): 4 nM | IC50 (134 cancer cell lines; Homo sapiens, COLO-829, read-out: IC50 in cell proliferation assay, cell line COLO 829 (BRAF p.V600E)): 16 nM | IC50 (134 cancer cell lines; Homo sapiens, DLD-1, read-out: IC50 in cell proliferation assay, cell line DLD-1): 507 nM | IC50 (134 cancer cell lines; Homo sapiens, DU-4475, read-out: IC50 in cell proliferation assay, cell line DU4475 (BRAF p.V600E)): 10 nM | IC50 (134 cancer cell lines; Homo sapiens, Daoy, read-out: IC50 in cell proliferation assay, cell line Daoy): 427 nM | IC50 (134 cancer cell lines; Homo sapiens, DoTc2-4510, read-out: IC50 in cell proliferation assay, cell line DoTc2 4510): 8 nM | IC50 (134 cancer cell lines; Homo sapiens, EOL1, read-out: IC50 in cell proliferation assay, cell line EoL-1 (FIP1L1-PDGFRA)): 8 nM | IC50 (134 cancer cell lines; Homo sapiens, FaDu, read-out: IC50 in cell proliferation assay, cell line FaDu): 19 nM | IC50 (134 cancer cell lines; Homo sapiens, G-361, read-out: IC50 in cell proliferation assay, cell line G-361 (BRAF p.V600E)): 5.46 nM | IC50 (134 cancer cell lines; Homo sapiens, HCC827, read-out: IC50 in cell proliferation assay, cell line HCC827 (EGFR exon19del)): 151 nM | IC50 (134 cancer cell lines; Homo sapiens, HCC4006, read-out: IC50 in cell proliferation assay, cell line HCC4006 (EGFR exon19del)): 808 nM | IC50 (134 cancer cell lines; Homo sapiens, HCT-15, read-out: IC50 in cell proliferation assay, cell line HCT 15): 1740 nM | IC50 (134 cancer cell lines; Homo sapiens, HCT-116, read-out: IC50 in cell proliferation assay, cell line HCT 116): 29 nM | IC50 (134 cancer cell lines; Homo sapiens, HEC-1, read-out: IC50 in cell proliferation assay, HEC-1 cell line): 330 nM | IC50 (134 cancer cell lines; Homo sapiens, HEC-1B, read-out: IC50 in cell proliferation assay, HEC-1-B cell line (EGFR p.A864V)): 6.36 nM | IC50 (134 cancer cell lines; Homo sapiens, HL-60, read-out: IC50 in cell proliferation assay, HL-60 cell line): 1 nM | IC50 (134 cancer cell lines; Homo sapiens, HT, read-out: IC50 in cell proliferation assay, HT cell line): > 28200 nM | IC50 (134 cancer cell lines; Homo sapiens, HT-1080, read-out: IC50 in cell proliferation assay, HT-1080 cell line): 28 nM | IC50 (134 cancer cell lines; Homo sapiens, Hs746T, read-out: IC50 in cell proliferation assay, Hs 746.T cell line (MET exon14skip + amplification)): 82 nM | IC50 (134 cancer cell lines; Homo sapiens, Hs-578T, read-out: IC50 in cell proliferation assay, Hs 578T cell line): 211 nM | IC50 (134 cancer cell lines; Homo sapiens, HuTu80, read-out: IC50 in cell proliferation assay, HuTu 80 cell line): 129 nM | IC50 (134 cancer cell lines; Homo sapiens, J82, read-out: IC50 in cell proliferation assay, J82 cell line): > 28200 nM | IC50 (134 cancer cell lines; Homo sapiens, Jurkat E6.1, read-out: IC50 in cell proliferation assay, Jurkat E6.1 cell line): > 28200 nM | IC50 (134 cancer cell lines; Homo sapiens, K562, read-out: IC50 in cell proliferation assay, K-562 cell line): 22 nM | IC50 (134 cancer cell lines; Homo sapiens, KATO III, read-out: IC50 in cell proliferation assay, KATO III cell line (FGFR2 amplification)): 142 nM | IC50 (134 cancer cell lines; Homo sapiens, KG-1, read-out: IC50 in cell proliferation assay, KG-1 cell line (FGFR1OP2-FGFR1)): 9 nM | IC50 (134 cancer cell lines; Homo sapiens, KLE, read-out: IC50 in cell proliferation assay, KLE cell line): > 28200 nM | IC50 (134 cancer cell lines; Homo sapiens, KMS-11, read-out: IC50 in cell proliferation assay, KMS-11 cell line (FGFR3 p.Y373C)): > 31600 nM | IC50 (134 cancer cell lines; Homo sapiens, KU812, read-out: IC50 in cell proliferation assay, Ku812 cell line): 13 nM | IC50 (134 cancer cell lines; Homo sapiens, Kasumi 1, read-out: IC50 in cell proliferation assay, Kasumi-1 cell line (KIT p.N822K)): 29 nM | IC50 (134 cancer cell lines; Homo sapiens, LC-2-ad, read-out: IC50 in cell proliferation assay, LC-2/ad cell line (CCDC6-RET)): 167 nM | IC50 (134 cancer cell lines; Homo sapiens, LNCaP-Clone-FGC, read-out: IC50 in cell proliferation assay, LNCaP clone FGC cell line): > 28200 nM | IC50 (134 cancer cell lines; Homo sapiens, LS174T, read-out: IC50 in cell proliferation assay, LS174T cell line): 30 nM | IC50 (134 cancer cell lines; Homo sapiens, LS-411N, read-out: IC50 in cell proliferation assay, LS411N cell line (BRAF p.V600E)): 9 nM | IC50 (134 cancer cell lines; Homo sapiens, LoVo, read-out: IC50 in cell proliferation assay, LoVo cell line): 32 nM | IC50 (134 cancer cell lines; Homo sapiens, MCF7, read-out: IC50 in cell proliferation assay, MCF-7 cell line): > 28200 nM | IC50 (134 cancer cell lines; Homo sapiens, MDA-MB-231, read-out: IC50 in cell proliferation assay, MDA-MB-231 cell line): 44 nM | IC50 (134 cancer cell lines; Homo sapiens, MDA-MB-453, read-out: IC50 in cell proliferation assay, MDA-MB-453 cell line): 270 nM | IC50 (134 cancer cell lines; Homo sapiens, MDA-MB-468, read-out: IC50 in cell proliferation assay, MDA-MB-468 cell line): 151 nM | IC50 (134 cancer cell lines; Homo sapiens, MG-63, read-out: IC50 in cell proliferation assay, MG-63 cell line): 257 nM | IC50 (134 cancer cell lines; Homo sapiens, MIA PaCa-2, read-out: IC50 in cell proliferation assay, MIA PaCa-2 cell line): 33 nM | IC50 (134 cancer cell lines; Homo sapiens, MKN-45, read-out: IC50 in cell proliferation assay, MKN45 cell line (MET amplification)): 83 nM | IC50 (134 cancer cell lines; Homo sapiens, MOLM-13, read-out: IC50 in cell proliferation assay, MOLM-13 cell line (FLT3 ITD)): 34 nM
